# Compound: COCC[n+]1c2c(n(Cc3cnccn3)c1C)C(=O)c1ccccc1C2=O [YM155]
# Assay: relative viability (nuclei count vs DMSO), 5 days (fraction); higher = more cells survive
# Conditions: 0.002 µM
# Summary of the method: (§1)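 Cells of lung cancer lines were placed in 1536-well plates and kept overnight at 37 °C. Pinning then delivered five library-drug doses (not always all listed), spaced by √10, onto plates anchored with vehicle, and the cells were left 5 days without changing medium. One step fixed, permeabilised and stained them with Hoechst, and MetaXpress counted nuclei in 4× images. Viability, as a median over plates, is treated-well nuclei divided by vehicle-well nuclei, with acceptance only at control CV below 25% and at least one doubling.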
row,Cell Line,relative viability
1,NCI-H2009,0.976
2,HCC-366,1.05
3,EBC-1,0.954
4,NCI-H1915,0.888
5,NCI-H2347,0.928
6,ABC-1,0.707
7,NCI-H1734,0.995
8,HCC-78,0.898
9,COR-L 105,0.914
10,HCC-15,0.928
11,HARA,0.823
12,NCI-H1975,0.826
13,NCI-H1944,0.957
14,NCI-H2126,0.972
15,EMC-BAC-2,0.883
16,SK-LU-1,0.86
17,IA-LM,0.864
18,NCI-H2170,0.922

row,Cell Line,relative viability
1,NCI-H661,0.982
2,NCI-H358,0.831
3,CAL-12T,0.928
4,LK-2,0.893
5,HOP-62,0.971
6,PC-14,0.939
7,NCI-H1993,0.904
8,NCI-H2405,0.952
9,A549,1.02
10,NCI-H3122,0.984
11,A-427,0.883
12,LOU-NH91,0.958
13,NCI-H596,0.962
14,NCI-H1666,0.932
15,NCI-H23,0.734
16,NCI-H838,0.912
17,NCI-H322M,0.92

# Same assay, conditions: 0.006325 µM
row,Cell Line,relative viability
1,NCI-H2009,0.992
2,HCC-366,0.993
3,EBC-1,0.971
4,NCI-H1915,0.994
5,NCI-H2347,0.994
6,ABC-1,0.61
7,NCI-H1734,0.956
8,HCC-78,1.08
9,COR-L 105,0.804
10,HCC-15,1.11
11,HARA,1.15
12,NCI-H1975,0.883
13,NCI-H1944,0.889
14,NCI-H2126,1.03
15,EMC-BAC-2,0.971
16,SK-LU-1,1.06
17,IA-LM,0.969
18,NCI-H2170,1.05

row,Cell Line,relative viability
1,NCI-H661,0.957
2,NCI-H358,0.954
3,CAL-12T,0.998
4,LK-2,1.06
5,HOP-62,0.93
6,PC-14,1.02
7,NCI-H1993,0.927
8,NCI-H2405,0.903
9,A549,0.984
10,NCI-H3122,0.992
11,A-427,0.951
12,LOU-NH91,1.01
13,NCI-H596,0.989
14,NCI-H1666,1
15,NCI-H23,0.925
16,NCI-H838,0.999
17,NCI-H322M,0.982

# Same assay, conditions: 0.02 µM
row,Cell Line,relative viability
1,NCI-H2009,1.02
2,HCC-366,1.01
3,EBC-1,1.07
4,NCI-H1915,0.997
5,NCI-H2347,1.07
6,ABC-1,0.396
7,NCI-H1734,1.01
8,HCC-78,1.08
9,COR-L 105,0.912
10,HCC-15,0.975
11,HARA,1.05
12,NCI-H1975,0.921
13,NCI-H1944,1.02
14,NCI-H2126,0.991
15,EMC-BAC-2,1.09
16,SK-LU-1,1.07
17,IA-LM,1.04
18,NCI-H2170,0.936

row,Cell Line,relative viability
1,NCI-H661,0.991
2,NCI-H358,1.07
3,CAL-12T,1.08
4,LK-2,1.03
5,HOP-62,1.06
6,PC-14,1.03
7,NCI-H1993,0.771
8,NCI-H2405,0.956
9,A549,0.995
10,NCI-H3122,1.01
11,A-427,1.03
12,LOU-NH91,1.02
13,NCI-H596,1.15
14,NCI-H1666,1.02
15,NCI-H23,0.957
16,NCI-H838,1.01
17,NCI-H322M,1

# Same assay, conditions: 0.06325 µM
row,Cell Line,relative viability
1,NCI-H2009,0.836
2,HCC-366,1.06
3,EBC-1,1
4,NCI-H1915,0.817
5,NCI-H2347,0.868
6,ABC-1,0.219
7,NCI-H1734,1.1
8,HCC-78,1.05
9,COR-L 105,0.692
10,HCC-15,1.02
11,HARA,1.09
12,NCI-H1975,0.679
13,NCI-H1944,1.03
14,NCI-H2126,1.05
15,EMC-BAC-2,0.808
16,SK-LU-1,0.91
17,IA-LM,0.764
18,NCI-H2170,1.05

row,Cell Line,relative viability
1,NCI-H661,0.909
2,NCI-H358,0.34
3,CAL-12T,0.719
4,LK-2,1.16
5,HOP-62,0.93
6,PC-14,0.931
7,NCI-H1993,0.577
8,NCI-H2405,0.595
9,A549,0.906
10,NCI-H3122,0.976
11,A-427,0.941
12,LOU-NH91,1.07
13,NCI-H596,1.06
14,NCI-H1666,0.918
15,NCI-H23,0.529
16,NCI-H838,0.768
17,NCI-H322M,1.03

# Compound: CC(C)(C)c1cc(NC(=O)Nc2ccc(-c3cn4c(n3)sc3cc(OCCN5CCOCC5)ccc34)cc2)no1 [Quizartinib]
# Assay: as above
# Conditions: 0.001 µM
# Summary of the method: as §1
row,Cell Line,relative viability
1,NCI-H2009,0.903
2,HCC-366,0.978
3,EBC-1,0.891
4,NCI-H1915,0.877
5,NCI-H2347,0.961
6,ABC-1,0.771
7,NCI-H1734,0.924
8,HCC-78,0.967
9,COR-L 105,0.864
10,HCC-15,0.842
11,HARA,0.946
12,NCI-H1975,0.853
13,NCI-H1944,0.938
14,NCI-H2126,0.981
15,EMC-BAC-2,0.919
